Assays:
[1] = biological target: T1, Recombinant human MAO-A (Homo sapiens, UniProt P21397); assay: MAO-A activity, colorimetric method, tyramine substrate; assay type: biochemical; conditions: for Specificity of SSAO on MAO-A: ratio of IC50 for MAO-A to IC50 for SSAO; for IC50: recombinant human MAO-A
T1 construct: purchased BD Biosciences (MA, USA)
T1 sequence (P21397 1-527): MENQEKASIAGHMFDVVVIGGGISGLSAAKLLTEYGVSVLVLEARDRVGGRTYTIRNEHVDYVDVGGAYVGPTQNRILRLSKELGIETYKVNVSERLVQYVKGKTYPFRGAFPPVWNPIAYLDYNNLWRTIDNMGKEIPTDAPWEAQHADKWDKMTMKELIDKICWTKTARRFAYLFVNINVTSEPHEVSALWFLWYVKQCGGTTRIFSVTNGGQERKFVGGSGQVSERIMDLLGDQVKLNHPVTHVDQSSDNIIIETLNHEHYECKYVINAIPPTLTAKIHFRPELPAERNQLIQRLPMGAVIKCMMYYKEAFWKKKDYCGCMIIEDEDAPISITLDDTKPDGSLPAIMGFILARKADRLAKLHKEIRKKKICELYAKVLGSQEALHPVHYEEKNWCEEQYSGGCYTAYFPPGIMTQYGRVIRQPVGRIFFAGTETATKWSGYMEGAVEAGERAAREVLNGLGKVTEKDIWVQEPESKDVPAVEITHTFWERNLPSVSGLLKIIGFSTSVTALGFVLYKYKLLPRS
Procedure: The specificities of the different SSAO inhibitors was tested by determining their abilities to inhibit MAO-A and MAO-B activities in vitro. Recombinant human MAO-A and human MAO-B enzymes were obtained from BD Biosciences (MA, USA). MAO activity was measured using the colorimetric method essentially as described (Holt, A. et al. (1997) Anal. Biochem. 244: 384). A pre-determined amount of inhibitor diluted in 0.2M potassium phosphate buffer, pH 7.6, was added to each well, if required. The amount of inhibitor varied in each assay but was generally at a final concentration of between 1 nM and 1 mM. Controls lacked inhibitor. The following agents were then added to a final reaction volume of 200 μL in 0.2M potassium phosphate buffer, pH 7.6: 0.04 mg/ml of MAO-A or 0.07 mg/ml MAO-B enzyme, 15 μL of 10 mM tyramine substrate (for MAO-A), or 15 μL 100 mM benzylamine substrate (for MAO-B), and 50 μL of freshly made chromogenic solution. The chromogenic solution contained 750 μM vanillic acid (Sigma#V-2250), 400 μM 4-aminoantipyrine (Sigma #A-4328) and 12 U/mL horseradish peroxidase (Sigma #P-8250) in order to cause a change of 0.5 OD A490 nm/h. This was within the linear response range for the assay. The plates were incubated for 60 min at 37° C. The increase in absorbance, reflecting MAO activity, was measured at 490 nm using microplate spectrophotometer (Power Wave 40, Bio-Tek Inst.). Inhibition was presented as percent inhibition compared to control after correcting for background absorbance and IC50 values calculated using GraphPad Prism software. Clorgyline and pargyline (inhibitors of MAO-A and -B, respectively) at 1 μM, were added to some wells as positive controls for MAO inhibition. […] The compounds described in the present invention are therefore expected to have therapeutic utility in the treatment of diseases and conditions in which the activity of SSAO/VAP-1 plays a role, that is, in SSAO/VAP-1 mediated diseases and conditions.

[2] = biological target: T2, Human SSAO (Homo sapiens, UniProt Q16853); assay: In vitro inhibition of SSAO activity, human umbilical cord homogenate, 14C-benzylamine; assay type: biochemical; conditions: human umbilical cord homogenate; read-out: Human SSAO IC50
T2 construct: rat lung or human umbilical cord homogenates were prepared by chopping the freshly removed tissue; from tissue; host or cells: human umbilical cord homogenate (25,000 g supernatant)
T2 sequence (Q16853 1-763): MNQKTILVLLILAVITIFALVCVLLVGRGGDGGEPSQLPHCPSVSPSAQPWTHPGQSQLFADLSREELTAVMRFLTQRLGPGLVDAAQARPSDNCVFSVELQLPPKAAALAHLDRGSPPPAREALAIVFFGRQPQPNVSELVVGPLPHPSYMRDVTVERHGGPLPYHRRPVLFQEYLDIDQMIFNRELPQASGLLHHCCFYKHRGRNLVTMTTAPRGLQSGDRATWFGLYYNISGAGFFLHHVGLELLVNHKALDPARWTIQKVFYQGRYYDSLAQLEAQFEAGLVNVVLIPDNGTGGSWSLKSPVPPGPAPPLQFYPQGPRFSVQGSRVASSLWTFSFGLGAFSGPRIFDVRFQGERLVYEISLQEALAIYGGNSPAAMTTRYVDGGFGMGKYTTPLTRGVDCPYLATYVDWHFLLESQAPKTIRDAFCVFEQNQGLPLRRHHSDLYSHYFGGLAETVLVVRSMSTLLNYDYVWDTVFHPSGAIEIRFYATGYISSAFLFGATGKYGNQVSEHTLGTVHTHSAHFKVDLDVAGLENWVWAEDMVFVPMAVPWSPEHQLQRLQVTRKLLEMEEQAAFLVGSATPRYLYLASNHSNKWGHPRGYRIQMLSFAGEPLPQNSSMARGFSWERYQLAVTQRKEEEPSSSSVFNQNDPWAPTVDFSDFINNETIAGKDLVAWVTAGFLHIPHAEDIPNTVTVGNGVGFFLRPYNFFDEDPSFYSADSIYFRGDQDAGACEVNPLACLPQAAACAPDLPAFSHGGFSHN
Procedure: SSAO activity was measured as described (Lizcano J M. Et al. (1998) Biochem J. 331:69). Briefly, rat lung or human umbilical cord homogenates were prepared by chopping the freshly removed tissue into small pieces and washing them thoroughly in PBS. The tissue was then homogenized 1:10 (w/v) for lung or 1:5 (w/v) for umbilical cord, in 10 mM potassium phosphate buffer (pH 7.8). Homogenates were then centrifuged at 1000 g at 4° C. for 10 min (lung) or 25,000 g for 30 min (umbilical cord); the supernatants were kept frozen until ready to use. Lung or umbilical cord homogenate was preincubated with clorgyline and pargyline at 1 μM to inhibit MAO-A and -B activity, respectively, and SSAO inhibitors were generally present at 1 nM-10 μM. The reaction was initiated by addition of 20 μM ^14C— benzylamine as substrate. The reaction was carried out at 37° C. in a final volume of 400 μL of 100 mM potassium phosphate buffer (pH 7.2) and stopped with 100 μl of 2M citric acid. Radioactively labeled products were extracted into toluene/ethyl acetate (1:1, v/v) containing 0.6% (w/v) 2,5-diphenyloxazole (PPO) before liquid scintillation counting.

Compound: NC/C(=C\F)CCc1cc(F)cc(C(F)(F)F)c1.O=C(O)C(F)(F)F [Compound I-109-Z, (Z)-3-Fluoro-2-(3-fluoro-5-trifluoromethylphenylethyl)allylamine trifluoroacetate]
- Specificity of SSAO on MAO-A [1]: 78
- IC50 [1]: 21 µM
- IC50 [2]: 0.27 µM
- melting point: 56 to 57 °C

Compound: CCOc1ccc(CC/C(=C\Cl)CN)cc1.Cl [Compound I-45-Z, (E)-3-Chloro-2-(4-ethoxyphenylethyl)allylamine hydrochloride]
- Specificity of SSAO on MAO-A [1]: 143
- IC50 [1]: 20 µM
- IC50 [2]: 0.14 µM
- melting point: 104 to 106 °C

Compound: NC/C(=C\Cl)CCc1cc(F)cc(C(F)(F)F)c1.O=C(O)C(F)(F)F [Compound I-40-Z, (Z)-3-Chloro-2-(3-fluoro-5-trifluoromethylphenylethyl)allylamine trifluoroacetate]
- Specificity of SSAO on MAO-A [1]: 687
- IC50 [1]: 632 µM
- IC50 [2]: 0.92 µM
- melting point: 51 to 52 °C

Compound: Cl.NC/C(F)=C\Cc1ccccc1 [II-9-E, (E)-2-Fluoro-4-phenyl-2-butenylamine hydrochloride]
- Specificity of SSAO on MAO-A [1]: 12120
- IC50 [1]: 1200 µM
- IC50 [2]: 0.099 µM
- melting point: 120 to 121 °C

Compound: COc1ccc(CC/C(=C/F)CN)cc1.Cl [Compound I-102-Z, (Z)-3-Fluoro-2-[2-(4-methoxyphenyl)-ethyl]-allylamine hydrochloride]
- Specificity of SSAO on MAO-A [1]: 21
- IC50 [1]: 0.62 µM
- IC50 [2]: 0.03 µM
- melting point: 94 to 95 °C

Compound: Cl.NC/C(F)=C\Cc1cccc(F)c1 [II-7-E, (E)-2-Fluoro-4-(3-fluorophenyl)-2-butenylamine hydrochloride]
- Specificity of SSAO on MAO-A [1]: 4545
- IC50 [2]: 0.22 µM
- melting point: 175 to 176 °C

Compound: CS(=O)(=O)c1cccc(C/C=C(/F)CN)c1.Cl [II-14-E, (E)-2-Fluoro-4-(3-methanesulfonylphenyl)-2-butenylamine hydrochloride]
- Specificity of SSAO on MAO-A [1]: 14290
- IC50 [2]: 0.07 µM
- melting point: 196 to 197 °C

Compound: COc1ccc(CC/C(=C\Cl)CN)cc1.Cl [Compound I-44-Z, (E)-3-Chloro-2-(4-methoxyphenylethyl)allylamine hydrochloride]
- Specificity of SSAO on MAO-A [1]: 146
- IC50 [1]: 105 µM
- IC50 [2]: 0.72 µM
- melting point: 138 °C (dec.)

Compound: CSc1cccc(C/C=C(/F)CN)c1.Cl [II-13-E, (E)-2-Fluoro-4-(3-methylthiophenyl)-2-butenylamine hydrochloride]
- Specificity of SSAO on MAO-A [1]: 100000
- IC50 [2]: 0.01 µM
- melting point: 192 to 193 °C

Compound: CCCCOc1ccc(CC/C(=C\Cl)CN)cc1.Cl [Compound I-47-E, (E)-3-Chloro-2-(4-n-butoxyphenylethyl)allylamine hydrochloride]
- Specificity of SSAO on MAO-A [1]: 794
- IC50 [1]: 135 µM
- IC50 [2]: 0.17 µM
- melting point: 132 to 133 °C

Compound: CC(C)c1ccc(C/C(=C\F)CN)cc1.Cl [Compound I-14-E, (E)-3-Fluoro-2-(4-isopropylbenzyl)allylamine hydrochloride]
- Specificity of SSAO on MAO-A [1]: 5923
- IC50 [1]: 77 µM
- IC50 [2]: 0.013 µM
- melting point: 175 to 176 °C

From patent US20110269811A1, “INHIBITORS OF SEMICARBAZIDE-SENSITIVE AMINE OXIDASE (SSAO) AND VAP-1 MEDIATED ADHESION USEFUL FOR TREATMENT AND PREVENTION OF DISEASES” (priority 2006, published 2011)
